In general, IC50 refers to the concentration that inhibits the measured activity by half.

Where “and” joins values, the source holds several entries; their conditions need not be identical. Identical values can stand only once.

The target of one assay is T1, purified αvβ3 receptor (Homo sapiens, UniProt P05106+P06756).
T1 construct: purchased Chemicon CC1020
The assay can be described thus: Binding to integrin αvβ3 receptors ([125I]echistatin competition). The settings on record: inhibition of [125I]echistatin 0.05 nM binding to purified αvβ3 receptor; read-out: αvβ3 IC50 ± SD. The protocol: Binding to Integrin αvβ3 Receptors
(§1) An aliquot of 100 μl was added to 96-well plates and incubated overnight at +4° C. Plates were washed once with buffer (50 mM Tris, pH 7.4, 100 mM NaCl, 2 mM CaCl2, 1 mM MgCl2, 1 mM MnCl2, 1% bovine serum albumin) and then incubated for another 2 hours at room temperature. Plates were washed twice with the same buffer and incubated for 3 hours at room temperature with the radioactive ligand [^125I]echistatin (Amersham Pharmacia Biotech) 0.05 nM in the presence of competition ligands. At the end of incubation, the wells were washed and the radioactivity determined using a gamma counter (Packard). Non-specific binding of the ligand was determined in the presence of excess cold echistatin (1 μM).
(§2) Evaluation of IC50 Parameters
(§3) The IC50 parameter was elaborated using “ALLFIT” software.

For the next assay, the target named is T2, purified αvβ5 receptor (Homo sapiens, UniProt P06756+P18084).
T2 construct: purchased Chemicon CC1020
The assay can be described thus: Binding to integrin αvβ5 receptors ([125I]echistatin competition). Particulars: inhibition of [125I]echistatin 0.15 nM binding to purified αvβ5 receptor; read-out: αvβ5 IC50 ± SD. How it is done: Binding to Integrin αvβ5 Receptors
as §1, with “0.15” for “0.05”, “Non-specific ligand” for “Non-specific”, “binding” for “binding of the ligand”
as §2, §3

Assay [1] has as its system PC3 prostate carcinoma cells. It is filed as cell-based, human. The settings on record: read-out: PC3 IC50, μM 3 h of treatm., cell adhesion to vitronectin, PC3 low levels of both integrins. How it is done: (§4) Adhesion Assay of Tumor Cells on Vitronectin
(§5) A2780 human ovarian carcinoma and PC3 prostate carcinoma cells were grown in RPMI 1640 containing 10% fetal bovine serum and 50 μg/ml gentamycin sulfate. A498 human renal carcinoma were grown in EMEM containing 10% fetal bovine serum and 50 μg/ml gentamycin sulfate. All the cells were maintained in a 37° C. incubator with saturated humidity and an atmosphere of 95% air and 5% CO2.
(§6) A2780 cell line expresses high levels of αvβ5 integrins, A498 high levels of αvβ3 integrins, and PC3 low levels of both integrins.
To test the effect of the drugs on cell adhesion, the appropriate cellular density (40000-50000 cells/well) for each tumor cell line was incubated with different concentrations of the compounds in 96-well tissue culture plates coated with vitronectin (5 μg/ml) and was allowed to attach for 3 hours. After this time the cells were washed once with PBS containing Ca^2+ e Mg^2+. Tumor cells were fixed with 4% paraformaldehyde for 10 min at room temperature and stained with 1% toluidine blue for 10 min at room temperature. […] The number of adherent cells was determined in a microplate reader (Victor2, EG&G Wallac) at 600 nm.
(§7) An IC50 value as parameter to measure the inhibiting effect of the molecules on tumor cell adhesion to vitronectin was evaluated using “ALLFIT” computer program.

The subject of assay [2] is A2780 human ovarian carcinoma. The assay is classed as cell-based. The settings on record: read-out: A2780 IC50, μM 3 h of treatm., cell adhesion to vitronectin, A2780 high levels of αvβ5 integrins. The protocol: as §4, §5, §6
(§8) To test the effect of the drugs on cell adhesion, the appropriate cellular density (40000-50000 cells/well) for each tumor cell line was incubated with different concentrations of the compounds in 96-well tissue culture plates coated with vitronectin (5 μg/ml) and was allowed to attach for 3 hours. After this time the cells were washed once with PBS containing Ca^2+ e Mg^2+. Tumor cells were fixed with 4% paraformaldehyde for 10 min at room temperature and stained with 1% toluidine blue for 10 min at room temperature. Tumor cells were washed with bi-distilled water, dried and solubilized with 1% SDS. The number of adherent cells was determined in a microplate reader (Victor2, EG&G Wallac) at 600 nm.
as §7

Assay [3] has as its system A498 human renal carcinoma. It is filed as cell-based. Particulars: read-out: A498 IC50, μM 3 h of treatm., cell adhesion to vitronectin, A498 high levels of αvβ3 integrins. The protocol: as §4, §5, §6, §8, §7

As to `N=C(N)NCCC[C@@H]1NC(=O)[C@H](Cc2ccc(CN)cc2)NC(=O)[C@@H](Cc2ccccc2)NC(=O)[C@H](CC(=O)O)NC(=O)CNC1=O` [ST2581, c(Arg-Gly-Asp-D-Phe-Amp)], the results for the IC50 on purified αvβ3 receptor and at purified αvβ5 receptor were 1.7 nM and 3.4 ± 0.1 nM, respectively.
Taken in the same sequence, the figures for `COCCOCCOCCOCC(=O)NCc1ccc(C[C@@H]2NC(=O)[C@@H](Cc3ccccc3)NC(=O)[C@H](CC(=O)O)NC(=O)CNC(=O)[C@H](CCCNC(=N)N)NC2=O)cc1` [ST2597, c[Arg-Gly-Asp-D-Phe-Amp(CO—CH2—(OCH2CH2)3—OCH3)]] were 13.5 ± 0.8 nM and 2.1 ± 0.07 nM.
In the case of `N=C(N)NCCC[C@@H]1NC(=O)[C@H](Cc2ccc(CNC(=O)CCC(=O)O)cc2)NC(=O)[C@@H](Cc2ccccc2)NC(=O)[C@H](CC(=O)O)NC(=O)CNC1=O` [ST2649, c[Arg-Gly-Asp-D-Phe-Amp-(CH2)2COOH]], the IC50 in assay [1] worked out at 33.7 ± 7.8 µM; at purified αvβ3 receptor it was 37.6 ± 0.9 nM; at purified αvβ5 receptor it was 5.1 ± 0.07 nM; in assay [2], 9.5 ± 1.9 µM; in assay [3], 34 ± 2.2 µM.
On to `N=C(N)NCCC[C@@H]1NC(=O)[C@H](Cc2ccc(CNC(=O)COCCOCCOCC(=O)O)cc2)NC(=O)[C@@H](Cc2ccccc2)NC(=O)[C@H](CC(=O)O)NC(=O)CNC1=O` [ST2661, c[Arg-Gly-Asp-D-Phe-Amp-(CO—CH2—(O—CH2—CH2)2—O—CH2—COOH]], for which the IC50 in assay [1] was 18.8 ± 4.4 µM; in assay [2] it was 12.3 ± 0.9 µM; in assay [3] it was 10.7 ± 0.4 µM.
Consider `CN1C(=O)[C@@H](Cc2ccccc2)NC(=O)[C@H](CC(=O)O)NC(=O)CNC(=O)[C@H](CCCNC(=N)N)NC(=O)[C@@H]1Cc1ccc(CN)cc1` [ST2700, c(Arg-Gly-Asp-D-Phe-N-Me-Amp)], for which the IC50 is 7 nM and 7.2 nM on purified αvβ3 receptor; 0.99 nM on purified αvβ5 receptor.
As for `N=C(N)NCCC[C@@H]1NC(=O)CN(Cc2ccc(CN)cc2)C(=O)[C@@H](Cc2ccccc2)NC(=O)[C@H](CC(=O)O)NC(=O)CNC1=O` [ST2701, c(Arg-Gly-Asp-D-Phe-N-Amb-Gly)], the IC50 came out at 36.7 ± 0.7 nM on purified αvβ3 receptor and 2.9 ± 0.1 nM on purified αvβ5 receptor.
Taken in the same sequence, the figures for `CC(C)[C@H]1C(=O)N[C@@H](CCCNC(=N)N)C(=O)NCC(=O)N[C@@H](CC(=O)O)C(=O)N[C@H](Cc2ccccc2)C(=O)N1CCCCCC(=O)O` [ST2956, c[Arg-Gly-Asp-D-Phe-N(carboxypentilene)-Val)]] were 30 ± 0.9 nM and 34 ± 1.4 nM.
Taken in the same sequence, the figures for `C=CCOC(=O)CCCCCN1C(=O)[C@@H](Cc2ccccc2)NC(=O)[C@H](CC(=O)O)NC(=O)CNC(=O)[C@H](CCCNC(=N)N)NC(=O)[C@@H]1C(C)C` [ST2957, c[Arg-Gly-Asp-D-Phe-N(allyloxycarbonylpentilene)-Val]] were 42.2 ± 0.7 nM and 38.3 ± 1.3 nM.

Values taken from patent US20070178045A1, “Cyclopeptide derivatives with anti-integrin activity” (priority 2004, published 2007).
